From PMC12377202, “Design, synthesis, and cytotoxic evaluation of quinazoline-based derivatives as VEGER-2 inhibitors: comparative study against EGFR kinase activity, induction of apoptosis, and molecular docking study” (RSC Advances, 2025)
Where “and” joins values, the source holds several entries; their conditions need not be identical. Equal values may be shown once.

Legend:
BAX = BAX gene expression in HepG-2 cells; format: cell-based, human
Experimental: (§1) All synthesized compounds were tested at their cytotoxic concentrations in HepG-2 cells for analysis of gene expression levels of apoptotic markers caspase-3, caspase-9, TNF-α, and IL-6 proteins, and only two active compounds were tested for BAX and Bcl-2 proteins.
(§2) through Flow cytometric analysis.
(§3) Pellets were collected again and incubated with
(§4) Total RNA from vehicle-treated
(§5) (Thermo Scientific, USA).
(§6) All experiments were performed in […]

HepG-2 = test: MTT anti-proliferative assay, HepG-2; format: cell-based, human; conditions: Homo sapiens, HepG2
Bcl-2 = Bcl-2 gene expression in HepG-2 cells; format: cell-based, human
Experimental: as §1, §2, §3, §4, §5, §6

K-562 = test: MTT anti-proliferative assay, K-562; format: cell-based, human; conditions: Homo sapiens, K562
VEGFR-2 = VEGFR-2 (Homo sapiens, UniProt P35968); test: In vitro VEGFR-2 inhibitory assay (ELISA kit); conditions: VEGFR-2 kinase
Sequence of VEGFR-2 (P35968 20-1356): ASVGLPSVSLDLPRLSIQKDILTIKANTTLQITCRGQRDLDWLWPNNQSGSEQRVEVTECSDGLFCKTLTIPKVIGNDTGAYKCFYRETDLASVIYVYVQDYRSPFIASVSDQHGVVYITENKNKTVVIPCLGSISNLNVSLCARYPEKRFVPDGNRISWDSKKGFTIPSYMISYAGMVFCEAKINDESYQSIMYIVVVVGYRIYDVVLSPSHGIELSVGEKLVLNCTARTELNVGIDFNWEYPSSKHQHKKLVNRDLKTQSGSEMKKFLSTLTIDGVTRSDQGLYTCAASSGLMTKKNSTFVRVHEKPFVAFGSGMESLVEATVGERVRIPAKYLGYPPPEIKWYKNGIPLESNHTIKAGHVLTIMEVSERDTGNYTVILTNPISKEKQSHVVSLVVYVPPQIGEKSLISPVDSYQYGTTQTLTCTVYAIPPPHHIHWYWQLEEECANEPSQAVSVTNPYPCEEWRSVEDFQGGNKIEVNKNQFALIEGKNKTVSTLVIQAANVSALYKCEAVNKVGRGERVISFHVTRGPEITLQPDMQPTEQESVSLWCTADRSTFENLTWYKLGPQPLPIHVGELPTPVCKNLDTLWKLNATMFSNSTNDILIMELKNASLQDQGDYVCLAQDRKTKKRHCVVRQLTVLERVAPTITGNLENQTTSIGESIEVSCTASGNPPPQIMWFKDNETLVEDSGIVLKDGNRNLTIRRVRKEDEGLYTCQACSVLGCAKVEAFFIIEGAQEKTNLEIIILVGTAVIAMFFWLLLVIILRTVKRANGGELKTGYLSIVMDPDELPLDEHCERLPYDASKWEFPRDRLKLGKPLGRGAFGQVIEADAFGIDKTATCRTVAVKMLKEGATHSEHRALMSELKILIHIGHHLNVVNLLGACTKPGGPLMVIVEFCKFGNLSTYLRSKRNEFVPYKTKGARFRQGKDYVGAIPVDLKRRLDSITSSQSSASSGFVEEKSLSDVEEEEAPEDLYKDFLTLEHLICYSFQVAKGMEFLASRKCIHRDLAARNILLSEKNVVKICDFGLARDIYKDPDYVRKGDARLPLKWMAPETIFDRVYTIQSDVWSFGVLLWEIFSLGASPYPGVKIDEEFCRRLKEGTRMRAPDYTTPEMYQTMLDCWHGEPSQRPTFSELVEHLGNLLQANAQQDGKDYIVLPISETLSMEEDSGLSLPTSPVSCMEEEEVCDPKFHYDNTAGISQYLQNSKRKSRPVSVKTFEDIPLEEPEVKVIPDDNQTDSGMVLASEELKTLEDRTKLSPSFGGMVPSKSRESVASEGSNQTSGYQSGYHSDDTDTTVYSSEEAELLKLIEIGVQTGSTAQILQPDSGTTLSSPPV

EGFR = EGFR (Homo sapiens, UniProt P00533); test: EGFR kinase inhibition assay (ELISA kit)
Sequence of EGFR (P00533 25-1210): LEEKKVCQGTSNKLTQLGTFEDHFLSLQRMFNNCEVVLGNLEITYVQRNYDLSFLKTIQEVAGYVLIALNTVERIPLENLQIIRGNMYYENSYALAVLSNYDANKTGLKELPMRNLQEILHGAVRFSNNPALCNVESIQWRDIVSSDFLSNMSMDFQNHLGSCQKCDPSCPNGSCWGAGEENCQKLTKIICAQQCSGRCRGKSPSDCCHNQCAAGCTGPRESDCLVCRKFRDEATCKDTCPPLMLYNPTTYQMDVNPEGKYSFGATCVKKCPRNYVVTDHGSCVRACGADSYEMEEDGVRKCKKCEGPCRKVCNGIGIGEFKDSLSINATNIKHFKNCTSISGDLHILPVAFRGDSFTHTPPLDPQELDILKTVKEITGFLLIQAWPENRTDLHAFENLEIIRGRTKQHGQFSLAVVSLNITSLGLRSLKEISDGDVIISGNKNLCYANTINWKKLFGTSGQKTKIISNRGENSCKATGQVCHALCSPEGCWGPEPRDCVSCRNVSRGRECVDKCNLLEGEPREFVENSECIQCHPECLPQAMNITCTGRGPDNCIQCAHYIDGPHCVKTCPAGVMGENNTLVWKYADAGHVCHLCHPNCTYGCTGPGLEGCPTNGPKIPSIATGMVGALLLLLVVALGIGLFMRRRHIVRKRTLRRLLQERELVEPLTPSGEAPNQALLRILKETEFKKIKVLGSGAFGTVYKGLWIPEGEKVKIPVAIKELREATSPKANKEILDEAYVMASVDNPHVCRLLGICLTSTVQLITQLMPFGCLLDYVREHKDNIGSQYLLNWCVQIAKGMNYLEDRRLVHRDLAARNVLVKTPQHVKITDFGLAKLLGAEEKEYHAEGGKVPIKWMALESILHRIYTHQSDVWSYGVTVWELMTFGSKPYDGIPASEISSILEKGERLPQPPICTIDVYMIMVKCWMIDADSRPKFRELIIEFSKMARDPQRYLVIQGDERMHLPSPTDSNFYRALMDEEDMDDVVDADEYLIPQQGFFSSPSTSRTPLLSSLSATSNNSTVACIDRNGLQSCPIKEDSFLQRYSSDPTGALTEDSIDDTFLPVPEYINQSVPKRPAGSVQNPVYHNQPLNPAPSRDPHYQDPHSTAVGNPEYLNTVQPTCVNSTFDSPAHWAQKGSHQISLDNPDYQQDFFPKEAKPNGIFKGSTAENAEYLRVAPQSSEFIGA

caspase-9 = test: Caspase-9 expression level in HepG-2 cells; format: cell-based, human; conditions: for Caspase-9 ± SE: HepG-2, at IC50 concentrations, control 11.01
Experimental: as §1, §2, §3, §4, §5, §6

caspase-3 = test: Caspase-3 expression level in HepG-2 cells; format: cell-based, human; conditions: for Caspase-3 ± SE: HepG-2, at IC50 concentrations, control 0.460
Experimental: as §1, §2, §3, §4, §5, §6

TNF-alpha = TNF-alpha level in HepG-2 cells; format: cell-based, human; conditions: control 43.48
Experimental: as §1, §2, §3, §4, §5, §6

BAX/Bcl-2 = BAX/Bcl-2 ratio in HepG-2 cells; format: cell-based, human; conditions: control 0.1260
Experimental: as §1, §2, §3, §4, §5, §6

IL-6R = IL-6R level in HepG-2 cells; format: cell-based, human
Experimental: as §1, §2, §3, §4, §5, §6

MCF-7 = test: MTT anti-proliferative assay, MCF-7; format: cell-based, human; conditions: Homo sapiens, MCF7
HepG-2 cells = test: Cell cycle analysis (PI staining, flow cytometry); format: cell-based, human
Experimental: In order to cause cytotoxicity, anticancer medicines must stop cell division at specific checkpoints, which are discrete stages of the cell cycle.
Propidium iodide (PI) staining and flow cytometry analysis[74,75] were used to analyze the cell cycle for derivatives 8a and 9a, as illustrated in the SI.
as §2, §3, §4, §5, §6

Structure (SMILES): O=C(Cn1cnc2cc(Cl)ccc2c1=O)Nc1ccccc1 [8a, 2-(7-Chloro-4-oxoquinazolin-3(4H)-yl)-N-phenylacetamide]
- fold increase in BAX expression level (BAX; HepG-2, vs control): 3.8 fold
- BAX expression level (BAX; HepG-2, control 0.44): 1.67 fold change
- Gene expression (fold change) BAX (BAX; HepG-2, control 0.4448): 1.6792 ± 0.74 fold change
- viability at 0.195 µg/mL (HepG-2; HepG-2, 0.195 ug/ml): 45.9%
- cytotoxicity at 0.195 µg/mL (HepG-2; HepG-2, 0.195 ug/ml, read-out: Toxicity %): 54.1%
- viability at 0.391 µg/mL (HepG-2; HepG-2, 0.391 ug/ml): 26.4%
- cytotoxicity at 0.391 µg/mL (HepG-2; HepG-2, 0.391 ug/ml, read-out: Toxicity %): 73.6%
- viability at 0.781 µg/mL (HepG-2; HepG-2, 0.781 ug/ml): 16.7%
- cytotoxicity at 0.781 µg/mL (HepG-2; HepG-2, 0.781 ug/ml, read-out: Toxicity %): 83.3%
- viability at 1.563 µg/mL (HepG-2; HepG-2, 1.563 ug/ml): 11.8%
- cytotoxicity at 1.563 µg/mL (HepG-2; HepG-2, 1.563 ug/ml, read-out: Toxicity %): 88.2%
- viability at 3.125 µg/mL (HepG-2; HepG-2, 3.125 ug/ml): 8.68%
- cytotoxicity at 3.125 µg/mL (HepG-2; HepG-2, 3.125 ug/ml, read-out: Toxicity %): 91.3%
- viability at 6.25 µg/mL (HepG-2; HepG-2, 6.25 ug/ml): 7.88%
- cytotoxicity at 6.25 µg/mL (HepG-2; HepG-2, 6.25 ug/ml, read-out: Toxicity %): 92.1%
- viability at 12.5 µg/mL (HepG-2; HepG-2, 12.5 ug/ml): 6.74%
- cytotoxicity at 12.5 µg/mL (HepG-2; HepG-2, 12.5 ug/ml, read-out: Toxicity %): 93.3%
- viability at 25 µg/mL (HepG-2; HepG-2, 25 ug/ml): 5.9%
- cytotoxicity at 25 µg/mL (HepG-2; HepG-2, 25 ug/ml, read-out: Toxicity %): 94.1%
- IC50 (HepG-2; MTT, HepG-2, read-out: Cytotoxicity against cancer cells IC50 HepG-2): 187.1 ± 1.8 nM
- fold reduction in Bcl-2 expression level (Bcl-2; HepG-2, vs control): 3.75 fold
- Gene expression (fold change) Bcl-2 (Bcl-2; HepG-2, control 3.4983): 0.93 fold change and 0.9352 ± 0.09 fold change
- viability at 0.195 µmol (K-562; K-562, 0.195 umol): 46.6%
- cytotoxicity at 0.195 µmol (K-562; K-562, 0.195 umol, read-out: Toxicity %): 53.4%
- viability at 0.391 µmol (K-562; K-562, 0.391 umol): 29.3%
- cytotoxicity at 0.391 µmol (K-562; K-562, 0.391 umol, read-out: Toxicity %): 70.7%
- viability at 0.781 µmol (K-562; K-562, 0.781 umol): 22%
- cytotoxicity at 0.781 µmol (K-562; K-562, 0.781 umol, read-out: Toxicity %): 78%
- viability at 1.563 µmol (K-562; K-562, 1.563 umol): 12.7%
- cytotoxicity at 1.563 µmol (K-562; K-562, 1.563 umol, read-out: Toxicity %): 87.3%
- viability at 3.125 µmol (K-562; K-562, 3.125 umol): 8.29%
- cytotoxicity at 3.125 µmol (K-562; K-562, 3.125 umol, read-out: Toxicity %): 91.7%
- viability at 6.25 µmol (K-562; K-562, 6.25 umol): 7.18%
- cytotoxicity at 6.25 µmol (K-562; K-562, 6.25 umol, read-out: Toxicity %): 92.8%
- viability at 12.5 µmol (K-562; K-562, 12.5 umol): 6.03%
- cytotoxicity at 12.5 µmol (K-562; K-562, 12.5 umol, read-out: Toxicity %): 94%
- viability at 25 µmol (K-562; K-562, 25 umol): 5.54%
- cytotoxicity at 25 µmol (K-562; K-562, 25 umol, read-out: Toxicity %): 94.5%
- IC50 (K-562; MTT, K-562, read-out: Cytotoxicity against cancer cells IC50 K-562): 188.4 ± 1.7 nM
- Activity % (VEGFR-2; HepG2): 25.136%
- Inhibition % (VEGFR-2; HepG2): 74.864%
- Activity % (VEGFR-2; K-562): 37.495%
- Inhibition % (VEGFR-2; K-562): 62.505%
- Activity % (VEGFR-2; MCF7): 32.377%
- Inhibition % (VEGFR-2; MCF7): 67.623%
- Activity % (EGFR; HepG2): 16.790%
- Inhibition % (EGFR; HepG2): 83.210%
- Activity % (EGFR; K-562): 33.902%
- Inhibition % (EGFR; K-562): 66.098%
- Activity % (EGFR; MCF7): 20.242%
- Inhibition % (EGFR; MCF7): 79.758%
- Caspase-9 ± SE (caspase-9): 74.01 ± 3.92 ng/L
- Caspase-9 ± SE (caspase-9; listed as R2): 74.01 ng/L
- caspase-9 expression level, fold increase (caspase-9; HepG-2, vs control cells): 6.72 fold
- Caspase-3 ± SE (caspase-3): 1.52 ± 0.017 ng/mL
- Caspase-3 ± SE (caspase-3; listed as R2): 1.52 ng/mL
- caspase-3 expression level, fold increase (caspase-3; HepG-2, vs control cells): 3.30 fold
- TNF-alpha ±SE (TNF-alpha; HepG-2, at IC50 concentrations): 14.37 ± 0.45 ng/L
- TNF-alpha ±SE (TNF-alpha; raw data, HepG2): 23.6 ng/L
- Gene expression (fold change) BAX/Bcl-2 ratio (BAX/Bcl-2): 1.77 and 1.7777 ± 0.11
- IL-6R ± SE (IL-6R; HepG-2, at IC50 concentrations, control 44.10): 19.54 ± 1.62 ng/L
- IL-6R protein level (IL-6R; HepG-2, control 44.10%): 19.54 ng/L
- IL-6 ±SE (IL-6R; raw data, HepG2, control 44.10): 26.0 ng/L
- viability at 0.195 µmol (MCF-7; MCF-7, 0.195 umol): 93.5%
- cytotoxicity at 0.195 µmol (MCF-7; MCF-7, 0.195 umol, read-out: Toxicity %): 6.51%
- viability at 0.391 µmol (MCF-7; MCF-7, 0.391 umol): 67%
- cytotoxicity at 0.391 µmol (MCF-7; MCF-7, 0.391 umol, read-out: Toxicity %): 33%
- viability at 0.781 µmol (MCF-7; MCF-7, 0.781 umol): 45.2%
- cytotoxicity at 0.781 µmol (MCF-7; MCF-7, 0.781 umol, read-out: Toxicity %): 54.8%
- viability at 1.563 µmol (MCF-7; MCF-7, 1.563 umol): 28.5%
- cytotoxicity at 1.563 µmol (MCF-7; MCF-7, 1.563 umol, read-out: Toxicity %): 71.5%
- viability at 3.125 µmol (MCF-7; MCF-7, 3.125 umol): 17.8%
- cytotoxicity at 3.125 µmol (MCF-7; MCF-7, 3.125 umol, read-out: Toxicity %): 82.2%
- viability at 6.25 µmol (MCF-7; MCF-7, 6.25 umol): 11.4%
- cytotoxicity at 6.25 µmol (MCF-7; MCF-7, 6.25 umol, read-out: Toxicity %): 88.6%
- viability at 12.5 µmol (MCF-7; MCF-7, 12.5 umol): 8.31%
- cytotoxicity at 12.5 µmol (MCF-7; MCF-7, 12.5 umol, read-out: Toxicity %): 91.7%
- viability at 25 µmol (MCF-7; MCF-7, 25 umol): 7.26%
- cytotoxicity at 25 µmol (MCF-7; MCF-7, 25 umol, read-out: Toxicity %): 92.7%
- IC50 (MCF-7; MTT, MCF-7, read-out: Cytotoxicity against cancer cells IC50 MCF-7): 695.5 ± 5.1 nM
- % Sub-G1 (HepG-2 cells; HepG-2, cytotoxic concentration, 24 h, control 68.12): 96.3% and 96.13%
- % S (HepG-2 cells; HepG-2, control 2.23): 0.52%
- % G2/M (HepG-2 cells; HepG-2, control 6.52): 0.16%
- % G1 (HepG-2 cells; HepG-2, control 23.14): 3.19%
